Structures are written as SMILES.

This assay concerns ZIKV. Briefly: ZIKV reporter virus-based antiviral screening on Huh7 cells. The following applies: Zika virus, Huh-7, 48 h, Huh7 cells infected with recombinant luciferase reporter ZIKV (MOI about 0.1), luciferase signal. It is filed as cell-based, Zika virus. From the text: Protocol for ZIKV reporter virus-based antiviral screening on Huh7 cells:
• Human hepatocyte-derived carcinoma cell line (Huh7) 2. Reagents • ViviRen™ Live Cell Substrate (Promega, Cat #E6492) or Nano Glo assay system (Promega: N1130) • White opaque 96-well TC-treated microplates (Corning, Cat #3916) • 96-well Clear V-Bottom TC-treated Microplate (Corning, Cat #3894) • Complete cell culture media: DMEM (Gibco, Cat #10569) supplemented with 10% FBS (HyClone, Cat #SH30071.03IH25-40)+1% MEM Non-Essential Amino Acids Solution 100×(Gibco, Cat #11140050)+1% Penicillin-Streptomycin (10,000 U/mL) (Gibco, Cat #15140122). • Assay media: DMEM media (Gibco, Cat #31053028) supplemented with 2% FBS, 2% GlutaMAX™ Supplement (Gibco Cat #35050061), 1% Sodium Pyruvate solution (Gibco, Cat #11360070), 1% MEM Non-Essential Amino Acids Solution 100× and 1% Penicillin-Streptomycin (10,000 U/mL). • Trypsin-EDTA solution (Gibco, Cat #25200056) 3. Virus • Recombinant ZIKV strain with Renilla luciferase gene (strain FSS-Rlu) or Nano luciferase gene (Strain PRV-Nano, Dakar-Nano) 4. Instruments • BioTek Cytation 5 or other plate-readers for chemiluminescence detection model. • Eppendorf plate centrifuge • Plate shaker • Eppendorf multichannel pipettes Procedures Day 1: Preparation of Cells • Human hepatocyte-derived carcinoma cell line (Huh7) cells were detached from a T-175 flask by using a Trypsin-EDTA solution. The detached cells were suspended in complete culture media in a sterile 50-ml conical tube. • The 50-ml conical tube was centrifuged at 1200×rpm for 3 min at room temperature. • The cells were resuspended in assay media. The cell numbers were counted, and the cells diluted to a density of 3×10^5 cells/ml. • The cells were plated at 50 μl cells per well in White opaque 96-well plates (assay plates). Gently shake the plates to ensure cells to attach to the plate evenly. • The plated cells were incubated in a humidified incubator (37° C. with 5% CO2). Day 2: Infection • 1) Nine serial (2-fold or 3-fold) concentrated compounds were prepared using 90% DMSO solution and DMSO controls in a clear V-bottom 96-well plate (compound plate). • For example:
• 2) The reporter virus stock was diluted to a concentration of 3×10^4 FFU (FFU: focus-forming unit)/ml using the assay media. 200 μl diluted virus per well was aliquoted into a clear V-bottom 96-well plate (mixing plate). • 3) 1 μl above 400×concentrated compound dilutions was added from the compound plate to each well of the mixing plate. The plates were shaken on a plate shaker for 5 min. • 4) 50 μl compound-virus mixture was added into each well of the assay plates (the MOI is about 0.1). The plates were shaken gently by mixing the virus evenly. • An example of the format for assay plate:
• control. • 5) The plates were centrifuged at 1000 rpm for 15 s. • 6) The plates were incubated at 37° C. with 5% CO2 in a humidified incubator for 48 hrs. Day 4: Read Luciferase Signals • 7) The ViviRen™ Live Cell Substrate was diluted in assay media for 3000× folds. 25 μl of diluted substrates was added into each well of the assay plates. • For Nano-Glo assay system, 50 μl diluted substrates (50×fold diluted from the stock in assay buffer) were added. • 8) The plates were incubated at room temperature for 5 min. • 9) Optimally, cell viability is measured using the Promega Cell-titer Glo kit (only used when ZIKV-Rlu was used for infection). • 10) Luciferase signals were read using the Cytation 5 with gain value of 120-150. Data Analysis • a. The luciferase signals from DMSO-treated groups (un-treated controls) were set as 100%. The relative luciferase signals were obtained by normalizing the luciferase signals from each dilution-treated group to that of the controls. • b.
(Reporter assays use an easily measured gene product as a stand-in for the process of interest.)

By EC50 is commonly meant the concentration that produces a half-maximal response. With `COC(=O)N[C@H](C(=O)N1CCC[C@H]1c1nc(C(C)(C)C)c(-c2cc3c4c(c2)OCc2cc(-c5[nH]c([C@@H]6CCCN6C(=O)[C@@H](NC(=O)OC)C(C)C)nc5C(C)(C)C)cc(c2-4)OC3)[nH]1)C(C)C` [Compound 76, Dimethyl ((2S,2′S)-((2S,2′S)-((5,10-dihydrochromeno[5,4,3-cde]chromene-2,7-diyl)bis(4-(tert-butyl)-1H-imidazole-5,2-diyl))bis(pyrrolidine-2,1-diyl))bis(3-methyl-1-oxobutane-1,2-diyl))dicarbamate], the half-maximal effective concentration (EC50) was determined as 496 nM.

For the molecule `COC(=O)N[C@H](C(=O)N1[C@H](c2nc(Cl)c(-c3cc4c5c(c3)OCc3cc(-c6[nH]c([C@@H]7C[C@@H]8CCCC[C@@H]8N7C(=O)[C@@H](NC(=O)OC)C(C)(C)C(F)(F)F)nc6Cl)cc(c3-5)OC4)[nH]2)C[C@@H]2CCCC[C@@H]21)C(C)(C)C(F)(F)F` [Compound 38, dimethyl ((2S,2′S)-((2S,2′S,3aS,3a′S,7aS,7a′S)-((5,10-dihydrochromeno[5,4,3-cde]chromene-2,7-diyl)bis(4-chloro-1H-imidazole-5,2-diyl))bis(octahydro-1H-indole-2,1-diyl))bis(4,4,4-trifluoro-3,3-dimethyl-1-oxobutane-1,2-diyl))dicarbamate], the EC50 worked out at 25.6 nM.

For `COC(=O)N[C@H](C(=O)N1[C@@H](C)CC[C@H]1c1nc(C(C)C)c(-c2cc3c4c(c2)OCc2cc(-c5[nH]c([C@@H]6CC[C@H](C)N6C(=O)[C@@H](NC(=O)OC)C(C)C)nc5C(C)C)cc(c2-4)OC3)[nH]1)C(C)C` [Compound 40, dimethyl ((2S,2′S)-((2S,2′S,5S,5′S)-((5,10-dihydrochromeno[5,4,3-cde]chromene-2,7-diyl)bis(4-isopropyl-1H-imidazole-5,2-diyl))bis(2-methylpyrrolidine-5,1-diyl))bis(3-methyl-1-oxobutane-1,2-diyl))dicarbamate], the EC50 amounted to 5.6 nM.

Turning to `CC[C@H](C)[C@H](NC(=O)OC)C(=O)N1CC2(CC2)C[C@H]1c1nc(Cl)c(-c2cc3c4c(c2)OCc2cc(-c5[nH]c([C@@H]6CC7(CC7)CN6C(=O)[C@@H](NC(=O)OC)[C@@H](C)CC)nc5Cl)cc(c2-4)OC3)[nH]1` [Compound 60, dimethyl ((2S,2′S,3S,3′S)-((6S,6′S)-((5,10-dihydrochromeno[5,4,3-cde]chromene-2,7-diyl)bis(4-chloro-1H-imidazole-5,2-diyl))bis(5-azaspiro[2.4]heptane-6,5-diyl))bis(3-methyl-1-oxopentane-1,2-diyl))dicarbamate], the EC50 was found to be 1.7 nM.

For `COC(=O)N[C@H](C(=O)N1C[C@H](F)C[C@H]1c1nc(Cl)c(-c2cc3c4c(c2)OCc2cc(-c5[nH]c([C@@H]6C[C@@H](F)CN6C(=O)[C@@H](NC(=O)OC)C(C)C)nc5Cl)cc(c2-4)OC3)[nH]1)C(C)C` [Compound 53, dimethyl ((2S,2′S)-((3R,3′R,5S,5′S)-((5,10-dihydrochromeno[5,4,3-cde]chromene-2,7-diyl)bis(4-chloro-1H-imidazole-5,2-diyl))bis(3-fluoropyrrolidine-5,1-diyl))bis(3-methyl-1-oxobutane-1,2-diyl))dicarbamate], the EC50 came to 7.3 nM.

As to `CC[C@H](C)[C@H](NC(=O)OC)C(=O)N1C[C@@H](F)C[C@H]1c1nc(Cl)c(-c2cc3c4c(c2)OCc2cc(-c5[nH]c([C@@H]6C[C@H](F)CN6C(=O)[C@@H](NC(=O)OC)[C@@H](C)CC)nc5Cl)cc(c2-4)OC3)[nH]1` [Compound 51, dimethyl ((2S,2′S,3S,3′S)-((3S,3′S,5S,5′S)-((5,10-dihydrochromeno[5,4,3-cde]chromene-2,7-diyl)bis(4-chloro-1H-imidazole-5,2-diyl))bis(3-fluoropyrrolidine-5,1-diyl))bis(3-methyl-1-oxopentane-1,2-diyl))dicarbamate], the EC50 came to 98.8 nM.

The values above are taken from patent US12497408B2, “Tetracyclic compounds and methods for the treatment of Zika virus infection” (priority 2021, dated 2025).
